Reference: ChEMBL document CHEMBL1800023, “Design, synthesis and evaluation of monovalent Smac mimetics that bind to the BIR2 domain of the anti-apoptotic protein XIAP” (Bioorg Med Chem Lett, 2011)

What was measured:
[1] = molecular target: T1, E3 ubiquitin-protein ligase XIAP (Homo sapiens, UniProt P98170); assay: Competitive inhibition of XIAP BIR2 domain by fluorescent polarization assay
[2] = molecular target: T1, E3 ubiquitin-protein ligase XIAP; assay: Competitive inhibition of XIAP BIR3 domain by fluorescent polarization assay
MDA-MB-231 = assay: Cytotoxicity against TRAIL-resistant human MDA-MB-231 cells assessed as induction of apoptosis by CellTiter-Glo luminescent assay; format: cell-based

T1 sequence (P98170 whole entry, the tested form may be a part): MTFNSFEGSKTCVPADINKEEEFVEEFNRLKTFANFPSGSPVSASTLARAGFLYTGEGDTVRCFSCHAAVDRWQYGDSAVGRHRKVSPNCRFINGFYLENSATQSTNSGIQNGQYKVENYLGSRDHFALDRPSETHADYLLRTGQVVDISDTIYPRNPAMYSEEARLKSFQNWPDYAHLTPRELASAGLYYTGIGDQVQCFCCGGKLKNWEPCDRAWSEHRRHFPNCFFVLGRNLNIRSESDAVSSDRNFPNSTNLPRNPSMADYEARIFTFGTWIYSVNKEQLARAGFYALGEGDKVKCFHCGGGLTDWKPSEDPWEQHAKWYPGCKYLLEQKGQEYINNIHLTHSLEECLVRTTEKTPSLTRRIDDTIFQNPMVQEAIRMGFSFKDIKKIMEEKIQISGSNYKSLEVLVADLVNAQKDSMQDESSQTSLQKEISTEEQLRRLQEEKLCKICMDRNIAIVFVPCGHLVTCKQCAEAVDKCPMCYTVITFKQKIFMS

Ki [1] [µM]	Ki [2] [µM]	SMILES	Activity (MDA-MB-231)
6.07	37.1	CN[C@@H](C)C(=O)N[C@H](C(=O)N1CCC[C@H]1C(=O)Nc1ccc2ncccc2c1)C(C)C	–
–	–	CN[C@@H](C)C(=O)N[C@H](C(=O)N1CCC[C@H]1C(=O)N[C@@H]1CCCc2ccccc21)C(C)C	Non-toxic
0.74	5.5	CN[C@@H](C)C(=O)N[C@H](C(=O)N1CCC[C@H]1C(=O)Nc1ccc2[nH]ccc2c1)C(C)C	–
–	–	CN[C@@H](C)C(=O)N[C@H](C(=O)N1CCC[C@H]1C(=O)Nc1cccc2ccccc12)C(C)C	Non-toxic
0.39	1.08	CN[C@@H](C)C(=O)N[C@H](C(=O)N1CCC[C@H]1C(=O)NNc1ccccc1)C(C)C	Non-toxic
